Data set [1] addresses human KHK-C (Homo sapiens (Human), UniProt P50053). Briefly: KHK Enzyme Activity Assay for Human KHK-C. Format: biochemical. As to conditions: fructose 250 μM, ATP 150 μM; F1P production by RapidFire MS; read-out: hKHK-C IC50. The method, then: (§1) KHK Enzyme Activity Assay for Human KHK-C and Human KHK-A
(§2) The intrinsic potency for inhitibiton of KHK C or A activity may be measured using an enzymatic assay which measures the production of F1P. Compounds are prepared in DMSO and tested in a 10-point concentration curve, to create 3-fold serial dilutions of the compounds in a 96-well plate ranging from 20 μM to 1.02 nM. Enzyme is prepared in assay buffer [50 mM 4-(2-hydroxyethyl)piperazine-1-ethanesulfonic acid (HEPES), 10 mM potassium chloride, 100 mM magnesium chloride, 2 mM tris(2-carboxyethyl)phosphine (TCEP), 0.01% n-octyl glucoside] and incubated with compounds at RT for 15 min. The reaction is carried out in 100 μL volumes containing substrate concentrations of fructose (250 μM for KHK-C assay and 1.25 mM for KHK-A assay) and ATP (150 μM for both isoforms); which are further incubated at RT for 20 min. The reaction is then halted by the addition of stop buffer; consisting of 0.2% formic acid and 1 μg/ml ^13C6-fructose-6-phosphate (^13C6-F6P) internal standard. Plates are stored in −20° C. until RapidFire MS analysis.
(§3) RapidFire MS Analysis for Quantitation of F1P
(§4) An Agilent 300 RapidFire automated extraction system (Agilent, Santa Clara, CA) with three HPLC quaternary pumps is coupled to an Agilent 6495 triple quadrupole mass spectrometer (Agilent Technologies, Santa Clara, CA) equipped with an electrospray ionization (ESI) interface source. […]
(§5) Solvent A, used for sample loading and washing, is 6 mM octylamine (Acros Organics 129495000) brought to pH 5.0 using acetic acid. […] Samples are sequentially analyzed by aspirating 10 μL onto the collection loop under vacuum directly from multiwell plates. […]
(§6) The triple quadrupole mass spectrometer is equipped with an ESI source and analytes are monitored using selected reaction monitoring (SRM) in negative mode [M−H]−. F1P is monitored at m/z 259.02/96.9 and ^13C6-fructose-6-phospate is monitored at m/z 264.99/97. The area ratio values for F1P is calculated using ^13C6-fructose-6-phospate as internal standard.

Data set [2] concerns cellular KHK in HepG2 liver cells. The data set is described as follows: KHK Cellular Activity Assay (conversion of fructose to F1P in HepG2 liver cells). Format: cell-based. As to conditions: Homo sapiens, 8.33 mM D-Fructose-13C6, 3 h at 37° C. On the procedure:
An Agilent 300 RapidFire automated extraction system (Agilent, Santa Clara, CA) with three HPLC quaternary pumps is coupled to an Agilent 6495 triple quadrupole mass spectrometer (Agilent Technologies, Santa Clara, CA) equipped with an electrospray ionization (ESI) interface source. The RapidFire Mass Spec system is equipped with a reusable RapidFire C18 (type C) solid-phase extraction (SPE) cartridge (G9205A).
Solvent A, used for sample loading and washing, is 6 mM octylamine (Acros Organics 129495000) brought to pH 5.0 using acetic acid. Solvent B, used for sample elution, is 20% water in ACN containing 0.1% formic acid. Samples are sequentially analyzed by aspirating 10 μL onto the collection loop under vacuum directly from multiwell plates. The 10 μL of sample is loaded onto the C18 cartridge and washed using solvent A at a flow rate of 1.25 mL/min for 5000 ms. The retained analytes are then eluted to the mass spectrometer using solvent B at a flow rate of 1.25 mL/min for 5000 ms. The system is re-equilibrated using solvent A at a flow rate of 1.25 mL/min for 2000 ms.
as §6
KHK Cellular Activity Assay
Potency can be measured using a cellular assay for the inhibition of conversion of Fructose to F1P by cellular KHK. HepG2 liver cells are plated on 96-well cell culture plates in growth media [Dulbecco's Modified Eagle's medium (DMEM) high glucose, 10% heat-inactivated fetal bovine serum (HI FBS), 1×Penicillin/streptomycin] and allowed to attach overnight in a 37° C. incubator. The growth media is washed and replaced with assay media consisting of Gibco OptiMEM1 Reduced Serum Medium, 0.1% Casein, 8.33 mM D-Fructose-^13C6, and compound concentrations ranging from 100 μM to 0.0051 μM (10-point concentration curve). […]

Data set [3] addresses human KHK-A (Homo sapiens (Human), UniProt P50053). Briefly: KHK Enzyme Activity Assay for Human KHK-A. As to conditions: fructose 1.25 mM, ATP 150 μM; F1P production by RapidFire MS; read-out: hKHK-A IC50. Format: biochemical. On the procedure:
as §1, §2, §3, §4, §5, §6

Data set [4] is described as follows: Pharmacokinetics in Sprague Dawley Rats. Format: in vivo. As to conditions: rat; for clearance / half-life / bioavailability: Sprague-Dawley, plasma, IV 1 mg/kg; for bioavailability: fasted, PO 3 mg/kg; for oral bioavailability / total clearance: result in words. On the procedure:
(§7) Liquid Chromatograph with Tandem Mass Spectrometry (LC-MS/MS) Method for Pharmacokinetic Assays: Samples are extracted using a protein precipitation by adding 180 μL of MeOH:ACN (1:1, v/v) containing an internal standard to 50 μL of plasma. Samples are then diluted with MeOH:Water (1:1, v/v) to get concentrations within standard curve range. Diluted samples are analyzed by LC-MS/MS using a Sciex API 4000 triple quadrupole mass spectrometer (Applied Biosystems/MDS; Foster City, CA) equipped with a TurboIonSpray interface, and operated in positive ion mode. The analytes are chromatographically separated using a ECHELON C18 4 um 20×2.1 mm column. LC conditions are Water/1 M ammonium bicarbonate, (2000:10, v/v) (Mobile Phase A), and MeOH/1 M ammonium bicarbonate, (2000:10, v/v) (Mobile Phase B).
Pharmacokinetics in Sprague Dawley Rats
The compound is administered by a single oral (PO; 3 mg/kg; volume of 10 mL/kg) or intravenous (IV; 1 mg/kg; volume of 1 mL/kg) dose in vehicle. Blood is collected from each animal at multiple time points between 0 and up to 24 hours post-dosage. The plasma concentrations of Example 2 and Example 3 are determined by a LC-MS/MS method as described above.

The nature of data set [5]: Pharmacokinetics in Dogs. Format: in vivo, Beagle Dogs. As to conditions: for oral bioavailability / total clearance: dog (in the rat [sic]), result in words. On the procedure:
as §7
The compound is administered by a single oral (PO; 2 mg/kg; volume of 2 mL/kg) or intravenous (IV; 1 mg/kg; volume of 1 mL/kg) dose in vehicle. Blood is collected from each animal at multiple time points between 0 and up to 24 hours post-dosage. The plasma concentrations of Example 2 and Example 3 are determined by a LC-MS/MS method as described above.

The conditions of data set [6]: administered for 6 weeks; subjects with non-alcoholic fatty liver disease; cited from earlier work.
The mark [7] stands for this setting: beagle, plasma, dog, fed, IV 1 mg/kg.

These results are taken from patent US12479829B2, “2-[2-methylazetidin-1-yl]-4-phenyl-6-(trifluoromethyl)-pyrimidine compounds” (Eli Lilly and Company, priority 2020, dated 2025).

Chain of human KHK-A (P50053 other isoform, or with tags, fused parts or gaps): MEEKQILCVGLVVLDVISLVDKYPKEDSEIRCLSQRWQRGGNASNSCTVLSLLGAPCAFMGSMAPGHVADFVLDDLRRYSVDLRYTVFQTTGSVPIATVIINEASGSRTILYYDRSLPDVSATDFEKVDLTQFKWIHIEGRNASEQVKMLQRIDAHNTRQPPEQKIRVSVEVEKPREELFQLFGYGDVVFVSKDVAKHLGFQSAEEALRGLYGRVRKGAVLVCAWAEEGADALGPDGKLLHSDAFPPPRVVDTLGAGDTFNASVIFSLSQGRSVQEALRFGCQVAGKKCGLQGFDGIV
Chain of human KHK-C (P50053 whole entry): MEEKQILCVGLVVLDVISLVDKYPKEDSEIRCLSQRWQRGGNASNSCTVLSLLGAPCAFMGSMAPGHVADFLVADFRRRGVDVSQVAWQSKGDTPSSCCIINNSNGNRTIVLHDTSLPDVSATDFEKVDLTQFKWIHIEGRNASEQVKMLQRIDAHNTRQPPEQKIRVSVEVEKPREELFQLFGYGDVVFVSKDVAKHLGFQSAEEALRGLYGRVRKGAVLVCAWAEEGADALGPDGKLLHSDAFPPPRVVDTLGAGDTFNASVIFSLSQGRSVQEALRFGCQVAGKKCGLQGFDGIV

Turning to `C[C@H]1CCN1c1nc(-c2ccc(C(=O)O)cc2)cc(C(F)(F)F)n1` [Example 1, 4-{2-[(2S)-2-Methylazetidin-1-yl]-6-(trifluoromethyl)pyrimidin-4-yl}benzoic acid], the IC50 turned out to be 22.6 nM in data set [1], 911 nM in data set [2] and 21.5 nM in data set [3].
`C[C@H]1CCN1c1nc(-c2ccc(C(=O)N3C[C@@H](O)[C@@H](O)C3)cc2)cc(C(F)(F)F)n1` [Example 2, [(3R,4S)-3,4-Dihydroxypyrrolidin-1-yl]-[4-{2-[(2S)-2-methylazetidin-1-yl]-6-(trifluoromethyl)pyrimidin-4-yl}phenyl]methanone]: the IC50 in data set [1] stood at 23.1 nM. It took 186 nM to reach half-maximal inhibition in data set [2] (IC50). In data set [4], the clearance is 5.57 mL/min/kg, the half-life was 6.42 h, the bioavailability is 65% and the oral bioavailability entry is “high”. For the same compound, the total clearance entry in data set [4] is given as “low”. In data set [5] (setting [7]), this compound showed a clearance of 2.15 mL/min/kg and a half-life of 11.3 h. Also, in data set [5], the oral bioavailability result is “high” and the total clearance result is “low”. In addition, the IC50 in data set [3] worked out at 12.7 nM.
Regarding `C[C@H]1CCN1c1nc(N2C[C@@H]3[C@@H](CC(=O)O)[C@@H]3C2)cc(C(F)(F)F)n1` [PF-06835919], the “whole liver fat as measured by magnetic resonance imaging-proton density fat fraction” value in data set [6] is “reduces whole liver fat”.
With `C[C@H]1CCN1c1nc(-c2ccc(C(=O)NC(CO)(CO)CO)cc2)cc(C(F)(F)F)n1` [Example 3, N-[2-Hydroxy-1,1-bis(hydroxymethyl)ethyl]-4-{2-[(2S)-2-methylazetidin-1-yl]-6-(trifluoromethyl)pyrimidin-4-yl}benzamide], the results for the half-maximal inhibitory concentration (IC50) in data set [1], in data set [2] and in data set [3] were 29.7 nM, 82.1 nM and 23.4 nM, respectively. Besides, the clearance turned out to be 12.7 mL/min/kg in data set [4] and 4.77 mL/min/kg in data set [5] (setting [7]). The half-life is 2.95 h in data set [4]; 5.07 h in data set [5] (setting [7]); 4.52 h in data set [5] (beagle, plasma, dog, fed, PO 2 mg/kg). The bioavailability in data set [4] is 69%; in data set [5] (beagle, plasma, dog, fed, PO 2 mg/kg, IV 1 mg/kg) it was approximately 96%. In addition, the oral bioavailability entry in data set [4] and in data set [5] was “high” in each case. Moreover, the total clearance result in data set [4] and in data set [5] was “low” throughout.

What is called IC50 is the concentration that gives 50% inhibition. The term clearance denotes a measure of how efficiently the substance is removed, as volume per time. A high value points to a high capacity for elimination. The term half-life denotes the time needed for the level to fall by half in the phase considered. What is called bioavailability is the share of a dose that reaches the circulation, judged against a reference dose that is usually intravenous.
